Source: patent publication US9511058B2, “Methods for using carboxamide, sulfonamide and amine compounds” (Rigel Pharmaceuticals, Inc., priority 2010, dated 2016)
pEC50: −log10 of the molar value.

The compounds below were run against AMPK (assay: AMPK activation, enzyme-linked immunosorbent assay). Details: compounds of Table 1 (Table 6).
Assay type: biochemical

Compound | pEC50
O=C(NC1CCN(Cc2ccccc2)CC1)c1cc2cc(OC3CCN(c4ccc(C(F)(F)F)cc4)CC3)ccc2o1 [1-75, N-(1-benzylpiperidin-4-yl)-5-(1-(4-(trifluoromethyl)phenyl)piperidin-4-yloxy)benzofuran-2-carboxamide] | > 7.00
CC(C)(C)OC(=O)N1CC[C@@H](NC(=O)c2cc3cc(OC4CCN(c5ccc(C(F)(F)F)cc5)CC4)ccc3o2)C1 [1-120, (R)-tert-butyl 3-(5-(1-(4-(trifluoromethyl)phenyl)piperidin-4-yloxy)benzofuran-2-carboxamido)pyrrolidine-1-carboxylate] | 5.30 to 6.00
CN(C(=O)c1cc2cc(OC3CCN(c4ccc(C(F)(F)F)cc4)CC3)ccc2o1)C1CCNCC1 [1-103, N-methyl-N-(piperidin-4-yl)-5-(1-(4-(trifluoromethyl)phenyl)piperidin-4-yloxy)benzofuran-2-carboxamide] | 5.30 to 6.00
O=C(NC1CCN(Cc2ccc(F)cc2)CC1)c1ccc(OC2CCN(c3ccc(C(F)(F)F)cc3)CC2)nc1 [1-11, N-(1-(4-fluorobenzyl)piperidin-4-yl)-6-(1-(4-(trifluoromethyl)phenyl)piperidin-4-yloxy)nicotinamide] | > 7.00
O=C(NC1CCN(Cc2cccnc2)CC1)c1ccc(OC2CCN(c3ccc(C(F)(F)F)cc3)CC2)cn1 [1-5, N-(1-(pyridin-3-ylmethyl)piperidin-4-yl)-5-(1-(4-(trifluoromethyl)phenyl)piperidin-4-yloxy)picolinamide] | > 7.00
O=C(N[C@@H]1CCN(Cc2ccncc2)C1)c1cc2cc(OC3CCN(c4ccc(C(F)(F)F)cc4)CC3)ccc2o1 [1-122, (R)-N-(1-(pyridin-4-ylmethyl)pyrrolidin-3-yl)-5-(1-(4-(trifluoromethyl)phenyl)piperidin-4-yloxy)benzofuran-2-carboxamide] | 6.30 to 7.00
CC(C)(C)OC(=O)N1CCC(NC(=O)c2cc3ccc(OC4CCN(c5ccc(C(F)(F)F)cc5)CC4)cc3s2)CC1 [1-140, tert-butyl 4-(6-(1-(4-(trifluoromethyl)phenyl)piperidin-4-yloxy)benzo[b]thiophene-2-carboxamido)piperidine-1-carboxylate] | 6.00 to 6.30
NC(=O)c1ccc(CN2CCC(Oc3ccc4oc(C(=O)NC5CCN(Cc6ccncc6)CC5)cc4c3)CC2)cc1 [1-131, 5-(1-(4-carbamoylbenzyl)piperidin-4-yloxy)-N-(1-(pyridin-4-ylmethyl)piperidin-4-yl)benzofuran-2-carboxamide] | 5.30 to 6.00
CN(C(=O)c1cc2cc(OC3CCN(c4ccc(C(F)(F)F)cc4)CC3)ccc2o1)C1CCN(Cc2ccccc2C#N)CC1 [1-111, N-(1-(2-cyanobenzyl)piperidin-4-yl)-N-methyl-5-(1-(4-(trifluoromethyl)phenyl)piperidin-4-yloxy)benzofuran-2-carboxamide] | 6.30 to 7.00
O=C(NC1CCN(Cc2ccccn2)CC1)c1cc2ccc(OC3CCN(c4ccc(C(F)(F)F)cc4)CC3)cc2o1 [1-93, N-(1-(pyridin-2-ylmethyl)piperidin-4-yl)-6-(1-(4-(trifluoromethyl)phenyl)piperidin-4-yloxy)benzofuran-2-carboxamide] | 6.30 to 7.00
CC(C)(C)OC(=O)N1CCC(NC(=O)c2cc(OC3CCN(c4ccc(C(F)(F)F)cc4)CC3)ccn2)CC1 [1-12, tert-butyl 4-(4-(1-(4-(trifluoromethyl)phenyl)piperidin-4-yloxy)picolinamido)piperidine-1-carboxylate] | 6.00 to 6.30
O=C(N[C@H]1CCNC1)c1ccc(OC2CCN(c3ccc(C(F)(F)F)cc3)CC2)cn1 [1-27, (S)-N-(pyrrolidin-3-yl)-5-(1-(4-(trifluoromethyl)phenyl)piperidin-4-yloxy)picolinamide] | < 5.00
O=C(NC1CCN(Cc2cccnc2)CC1)c1cc2ccc(OC3CCN(c4ccc(OC(F)(F)F)cc4)CC3)cc2o1 [1-95, N-(1-(pyridin-3-ylmethyl)piperidin-4-yl)-6-(1-(4-(trifluoromethoxy)phenyl)piperidin-4-yloxy)benzofuran-2-carboxamide] | > 7.00
O=C(NC1CCN(C(=O)c2ccncc2)CC1)c1cc2cc(OC3CCN(c4ccc(C(F)(F)F)cc4)CC3)ccc2o1 [1-115, N-(1-isonicotinoylpiperidin-4-yl)-5-(1-(4-(trifluoromethyl)phenyl)piperidin-4-yloxy)benzofuran-2-carboxamide] | > 7.00
O=C(NC1CCNCC1)c1cc2cc(OC3CCN(c4ccc(C(F)(F)F)cc4)CC3)ccc2o1 [1-86, N-(piperidin-4-yl)-5-(1-(4-(trifluoromethyl)phenyl)piperidin-4-yloxy)benzofuran-2-carboxamide] | < 5.00
N#Cc1ccc(N2CCC(Oc3ccc(S(=O)(=O)NC4CCN(Cc5ccncc5)CC4)cn3)CC2)cc1 [1-52, N-(1-(pyridin-4-ylmethyl)piperidin-4-yl)-6-(1-(4-cyanophenyl)piperidin-4-yloxy)pyridine-3-sulfonamide] | 6.30 to 7.00
CC(C)(C)OC(=O)N1CCC(NC(=O)c2sc3cc(OC4CCN(c5ccc(C(F)(F)F)cc5)CC4)ccc3c2Cl)CC1 [1-147, tert-butyl 4-(3-chloro-6-(1-(4-(trifluoromethyl)phenyl)piperidin-4-yloxy)benzo[b]thiophene-2-carboxamido)piperidine-1-carboxylate] | 5.30 to 6.00
O=C(N[C@@H]1CCN(S(=O)(=O)c2cccnc2)C1)c1cc2cc(OC3CCN(c4ccc(C(F)(F)F)cc4)CC3)ccc2o1 [1-126, (R)-N-(1-(pyridin-3-ylsulfonyl)pyrrolidin-3-yl)-5-(1-(4-(trifluoromethyl)phenyl)piperidin-4-yloxy)benzofuran-2-carboxamide] | 5.30 to 6.00
N#Cc1ccc(CN2CCC(NC3CCc4cc(OC5CCN(c6ccc(C(F)(F)F)cc6)CC5)ccc43)CC2)cc1 (centres unmarked) [1-160, 4-((4-(5-(1-(4-(trifluoromethyl)phenyl)piperidin-4-yloxy)-2,3-dihydro-1H-inden-1-ylamino)piperidin-1-yl)methyl)benzonitrile] | > 7.00

Same assay, conditions: compounds of Table 2 (Table 7)

Compound | pEC50
N#Cc1ccc(CN2CCC(NC(=O)c3ccc4[nH]c5c(c4c3)CN(S(=O)(=O)c3ccc(C#N)cc3)CC5)CC2)cc1 [2-25, N-(1-(4-cyanobenzyl)piperidin-4-yl)-2-(4-cyanophenylsulfonyl)-2,3,4,5-tetrahydro-1H-pyrido[4,3-b] indole-8-carboxamide] | 4.30 to 5.00
N#Cc1ccc(CN2CCC(NC(=O)c3ccc4[nH]c5c(c4c3)CN(Cc3ccc(F)cc3)CC5)CC2)cc1 [2-9, N-(1-(4-cyanobenzyl)piperidin-4-yl)-2-(4-fluorobenzyl)-2,3,4,5-tetrahydro-1H-pyrido[4,3-b]indole-8-carboxamide] | > 6.30
O=C(NC1CCN(Cc2ccncc2)CC1)c1ccc2[nH]c3c(c2c1)CN(Cc1ccccc1)CC3 [2-7, 2-benzyl-N-(1-(pyridin-4-ylmethyl)piperidin-4-yl)-2,3,4,5-tetrahydro-1H-pyrido[4,3-b]indole-8-carboxamide] | 5.00 to 5.30

Same assay, conditions: compounds of Table 3 (Table 8)

Compound | pEC50
N#Cc1ccc(CN2CCC(NC(=O)c3cnc(OC4CCN(c5ccc(C(F)(F)F)cc5)CC4)cn3)CC2)cc1 [3-22, N-(1-(4-cyanobenzyl)piperidin-4-yl)-5-(1-(4-(trifluoromethyl)phenyl)piperidin-4-yloxy)pyrazine-2-carboxamide] | > 7.00
CC(C)(C)OC(=O)N1CCC(Oc2ncc(C(=O)NC3CCN(Cc4ccc(C#N)cc4)CC3)s2)CC1 [3-26, tert-butyl 4-(5-(1-(4-cyanobenzyl)piperidin-4-ylcarbamoyl)thiazol-2-yloxy)piperidine-1-carboxylate] | 5.00 to 6.00
N#Cc1ccc(CN2CCC(NC(=O)c3ccc(C(=O)N4CCN(c5ccc(C(F)(F)F)cn5)CC4)cc3)CC2)cc1 [3-30, N-(1-(4-cyanobenzyl)piperidin-4-yl)-4-(4-(5-(trifluoromethyl)pyridin-2-yl)piperazine-1-carbonyl)benzamide] | > 7.00

Same assay, conditions: compounds of Table 4 (Table 9)

Compound | pEC50
O=C(N[C@H]1CCN(Cc2ccncc2)C1)c1ccc(C(=O)N2CCN(c3ccc(Cl)cc3)CC2)cn1 [4-5, (S)-5-(4-(4-chlorophenyl)piperazine-1-carbonyl)-N-(1-(pyridin-4-ylmethyl)pyrrolidin-3-yl)picolinamide] | 5.30 to 6.00

Same assay, conditions: compounds of Table 5 (Table 10)

Compound | pEC50
O=C(NC1CCN(Cc2ccccc2)CC1)c1ccc(OC2CCN(Cc3cccc(C(F)(F)F)c3)CC2)c(Cl)c1 [5-60, N-(1-benzylpiperidin-4-yl)-3-chloro-4-(1-(3-(trifluoromethyl)benzyl)piperidin-4-yloxy)benzamide] | > 6.00
COc1cc(C(=O)NCCCN2CCOCC2)ccc1OC1CCN(Cc2ccc(Cl)cc2)CC1 [5-98] | 5.00 to 6.00
CN1CCC(NC(=O)c2ccc(OC3CCN(Cc4ccc(C(F)(F)F)cc4)CC3)c(Cl)c2)CC1 [5-58, 3-chloro-N-(1-methylpiperidin-4-yl)-4-(1-(4-(trifluoromethyl)benzyl)piperidin-4-yloxy)benzamide] | 5.00 to 6.00
Cn1cncc1CN1CCC(Oc2ccc(C(=O)NC3CCN(Cc4ccccc4)CC3)cc2Cl)CC1 [5-5, N-(1-benzylpiperidin-4-yl)-3-chloro-4-(1-((1-methyl-1H-imidazol-5-yl)methyl)piperidin-4-yloxy)benzamide] | 4.00 to 4.30
COc1ccc(CN2CCC(Oc3ccc(C(=O)NC4CCN(Cc5ccccc5)CC4)cc3Cl)CC2)cc1 [5-1, N-(1-benzylpiperidin-4-yl)-3-chloro-4-(1-(4-methoxybenzyl)piperidin-4-yloxy)benzamide] | > 6.00
O=C(NC1CCN(Cc2cccnc2)CC1)c1ccc(OC2CCN(c3ccc(C(F)(F)F)cc3)CC2)c(F)c1 [5-29, 3-fluoro-N-(1-(pyridin-3-ylmethyl)piperidin-4-yl)-4-(1-(4-(trifluoromethyl)phenyl)piperidin-4-yloxy)benzamide] | > 6.00
O=C(NC1CCN(Cc2ccccc2)CC1)c1ccc(OC2CCN(Cc3ccc(Cl)c(Cl)c3)CC2)c(F)c1 [5-82, N-(1-benzylpiperidin-4-yl)-4-(1-(3,4-dichlorobenzyl)piperidin-4-yloxy)-3-fluorobenzamide] | > 6.00
N#Cc1ccc(N2CCC(Oc3cccc(C(=O)NC4CCN(Cc5ccncc5)CC4)c3)CC2)cc1 [5-88, N-(1-(pyridin-4-ylmethyl)piperidin-4-yl)-3-(1-(4-cyanophenyl)piperidin-4-yloxy)benzamide] | 5.00 to 6.00
O=C(NC1CCN(Cc2ccccc2)CC1)c1ccc(OC2CCN(Cc3ccccn3)CC2)c(F)c1 [5-39, N-(1-benzylpiperidin-4-yl)-3-fluoro-4-(1-(pyridin-2-ylmethyl)piperidin-4-yloxy)benzamide] | 5.00 to 6.00
